Experimental data from US20240189387A1, “DOSING REGIMENS FOR HEMATOPOIETIC STEM CELL MOBILIZATION FOR STEM CELL TRANSPLANTS IN MULTIPLE MYELOMA PATIENTS” (Ensoma, Inc., priority 2021, published 2024).
Where two headings read alike, the source gives them in different places.

Tests used:
neutrophils = test: Phase 1 trial: mobilization of neutrophils (automated hematology analyzer); conditions: MGTA-145 monotherapy
Method: (§1) The dose of MGTA-145 was one of 0.0075 mg/kg, 0.015 mg/kg, 0.03 mg/kg, 0.075 mg/kg, 0.15 mg/kg, or 0.3 mg/kg. […] The dose of MGTA-145 was one of 0.015 mg/kg, 0.03 mg/kg, 0.075 mg/kg, or 0.15 mg/kg. […] The dose of MGTA-145 was one of 0.03 mg/kg or 0.075 mg/kg.
(§2) Mobilization of white blood cells (WBCs), neutrophils, lymphocytes, basophils, and eosinophils was quantified by automated hematology analyzer.

[1] = type: in vivo
[2] = tested on: neutrophil and platelet engraftment; type: in vivo
CD34+ cells [3] = test: Phase 1 trial Part D: apheresis collection yield; conditions: 2 h stagger after plerixafor
Method: as §1
The table documents the body weight of each subject, the total CD34+ cells that were obtained through the apheresis procedure, the normalized CD34+ cells/kg of body weight, and the percentage of CD34+ cells that were CD90+CD45RA−.
The table documents the total CD34+ cells that were obtained through the apheresis procedure, the normalized CD34+ cells/kg of body weight, and the percentage of CD34+ cells that were CD90+CD45RA−.

CD34+CD90+CD45RA− cells = test: Phase 1 trial: mobilization of CD34+CD90+CD45RA− cells into peripheral blood (flow cytometry)
CXCR2 = target: T1, CXCR2 (Homo sapiens, UniProt P25025); test: Phase 1 trial: CXCR2 expression on peripheral blood neutrophils; type: in vivo
T1 construct: endogenous in cells; host or cells: peripheral blood neutrophils of dosed subjects (in vivo)
T1 sequence (P25025 1-360): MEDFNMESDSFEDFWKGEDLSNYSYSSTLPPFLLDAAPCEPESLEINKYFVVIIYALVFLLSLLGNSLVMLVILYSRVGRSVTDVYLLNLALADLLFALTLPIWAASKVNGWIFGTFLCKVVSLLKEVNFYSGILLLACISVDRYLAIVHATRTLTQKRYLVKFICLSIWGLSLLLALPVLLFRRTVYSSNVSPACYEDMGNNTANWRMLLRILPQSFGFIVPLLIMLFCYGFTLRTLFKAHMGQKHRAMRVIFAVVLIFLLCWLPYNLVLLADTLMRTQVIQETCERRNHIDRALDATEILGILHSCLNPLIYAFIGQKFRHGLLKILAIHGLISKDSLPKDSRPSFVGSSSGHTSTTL

[4] = tested on: neutrophil activation markers (L-selectin, CD11b, CD18, CD66); test: Phase 1 trial: neutrophil activation markers (flow cytometry); type: in vivo, human; conditions: MGTA-145 monotherapy
Method: (§3) Additionally, blood samples were analyzed by multicolor flow cytometry to quantify changes in expression of neutrophil activation markers such as L-selectin, CD11b, CD18, and CD66. Additionally, matrix metalloproteinase 9 (MMP-9), a neutrophil protease believed to mediate mobilization in response to MGTA-145, as well as its cognate inhibitor, TIMP-1, were quantified in plasma samples collected at the same time points by sandwich immunoassay.

[5] = Phase 1 trial: treatment emergent adverse events
From the text: FIG. 1A depicts the treatments provided to patient cohorts enrolled in Part A and Part B of a Phase 1 clinical trial as well as measurable endpoints.
Patients were monitored for emergent adverse events.

white blood cells (WBCs) = test: Phase 1 trial: mobilization of white blood cells (automated hematology analyzer); conditions: MGTA-145 monotherapy
Method: as §1, §2

[6] = tested on: hematopoietic stem and progenitor cells; conditions: cited from earlier work
[7] = tested on: LT-HSC cells (Lin−c-Kit+Sca1+CD150+CD48−); test: Mobilization in mice and primary/secondary transplantation at limit dilution; type: in vivo; conditions: compared to the other cohorts
From the text: Mice (CD45.1) were mobilized according to the scheme shown in FIG. 24 and mobilized cells transplanted into CD45.2 mice at limit dilution.

MMP-9 = test: Phase 1 trial: plasma MMP-9 and TIMP-1 (sandwich immunoassay); type: in vivo, human; conditions: MGTA-145 monotherapy, all six doses
Method: as §3

CD34+ cells [8] = test: Phase 1 trial: mobilization of CD34+ cells into peripheral blood (multicolor flow cytometry); conditions: for % ≥20/μL peak CD34+ / Peak CD34+ (#/μL) Median (range): Day 1
CD34+ cells [9] = conditions: historical plerixafor alone data, Devine et al., Blood 2008; cited from earlier work
[10] = tested on: graft cell subsets (T cells, B cells, NK cells); conditions: cited from earlier work
[11] = higher doses (0.075, 0.15, 0.3 mg/kg), 2 hours post administration
[12] = lower doses (0.0075, 0.015, 0.03 mg/kg)
[13] = MGTA-145 monotherapy 0.03 mg/kg
[14] = MGTA-145 monotherapy, the other doses
[15] = Part B, combination n = 38, plerixafor n = 14
[16] = Chen et al., 2019, 2 LP plerixafor, 1 LP G-CSF
[17] = Devine et al, 2008, yield of 1 LP
[18] = Part B, plerixafor (pooled placebo + plerixafor), listed as plerixafor
[19] = Part C, 8 patients on combination (0.03 or […]), plerixafor alone
[20] = Part C, plerixafor (pooled placebo + plerixafor), listed as plerixafor

MGTA-145: Gro-β T (SEQ ID NO: 2), truncated Gro-β with deletion of the first four N-terminal amino acids; CXCR2 agonist
initial plateau of neutrophil mobilization (neutrophils; [11]): 5-8 ×10^3 cells/μL | peak mobilization of neutrophils (neutrophils; [12]): 13-15 ×10^3 cells/μL | median severity of pain on a scale of 1-10 [1]: 8 (3-10) | patients experiencing hyperhidrosis [1]: 4% | patients experiencing nausea [1]: 8% | patients experiencing thrombocytopenia [1]: 8% | patients experiencing vomiting (grade 2) [1]: 4% | patients with TEAEs at least possibly related to MGTA-145 [1]: 60% | patients with acute pain [1]: 9 patients | patients experiencing pain ([1]; 11 patients): 50% | patients with acute onset transient bone pain with MGTA-145 ([1]; 25 patients): 38% | patients with pain (all grade 1) ([1]; 25 patients): 44% | patients with at least 1 treatment emergent AE with MGTA-145 ([1]; 25 patients, grade 1 n=14, grade 2 n=1): 60% | duration of acute onset transient bone pain ([1]; 25 patients, range 3-28): 7 min | patients with at least 1 adverse event ([1]; initial cohort): 90% | patients with grade 2 AEs (anemia, hypokalemia) ([1]; initial cohort): 20% | patients with grade 3 AEs (worsening of baseline grade 3 anemia; hypocalcemia) ([1]; initial cohort): 20% | tolerability ([1]; multiple myeloma patients): well tolerated | onset of acute and transient bone pain after start of MGTA-145 infusion (median) ([1]; range 3-10): about 5 minutes | median duration of acute and transient bone pain ([1]; range 3-28): 7 min | engraftment at day 100 follow-up ([2]; 14 patients): durable engraftment | engraftment after transplant ([2]; 18 transplanted patients): All patients have engrafted | median time to platelet engraftment (platelets ≥20,000×10^6/L, no transfusion in 7 days) ([2]; 18 transplanted patients): 17.5 days | patients needing RBC transfusion ([2]; 18 transplanted patients): 17% | median time to neutrophil engraftment ([2]; 18 transplanted patients, range 11-15): 12 days | CD34+/kg Mean (CD34+ cells [3]; MGTA-145 0.03 mg/kg): 4.1 x10^6 | CD34+/kg Median (CD34+ cells [3]; MGTA-145 0.03 mg/kg): 4.3 x10^6 | CD90+/kg Mean (CD34+CD90+CD45RA− cells) (CD34+ cells [3]; MGTA-145 0.03 mg/kg): 1.3 x10^6 | CD90+/kg Median (CD34+CD90+CD45RA− cells) (CD34+ cells [3]; MGTA-145 0.03 mg/kg): 1.5 x10^6 | Total CD34+ Yield Median (range) (CD34+ cells [3]; MGTA-145 0.03 mg/kg): 321 (239-500) x10^6 | CD90+ (% of CD34+) (CD34+ cells [3]; MGTA-145 0.03 mg/kg, 0.03 mg/kg): 31% | CD90+/kg Mean (CD34+CD90+CD45RA− cells) (CD34+ cells [3]; MGTA-145 […]): 1.4 x10^6 | CD90+/kg Median (CD34+CD90+CD45RA− cells) (CD34+ cells [3]; MGTA-145 […]): 1.2 x10^6 | CD90+ (% of CD34+) (CD34+ cells [3]; MGTA-145 […], […]): 37% | fold increase of CD34+CD90+CD45RA− cells (CD34+CD90+CD45RA− cells; [13]): ~8.3 fold | peak concentration of CD34+CD90+CD45RA− cells (CD34+CD90+CD45RA− cells; [13]): ~3 cells/μL | time of peak CD34+CD90+CD45RA− mobilization post administration (CD34+CD90+CD45RA− cells; MGTA-145 monotherapy, six doses): 30 min | fold increase of CD34+CD90+CD45RA− cells (CD34+CD90+CD45RA− cells; [14]): 2-3.5 fold | peak concentration of CD34+CD90+CD45RA− cells (CD34+CD90+CD45RA− cells; [14]): 1-1.6 cells/μL | CXCR2 expression recovery prior to the second dose (CXCR2; MGTA-145 0.07 mg/kg, staggered dosing with plerixafor, two consecutive days): ~80 % of baseline | CXCR2 on peripheral neutrophils (CXCR2; MGTA-145 monotherapy, followed by recovery over 24 hours): rapid downregulation | fold change relative to baseline of CD66 ([4]; all doses except the highest (0.3 mg/kg)): < 2 fold | fold change relative to baseline of CD11b and CD18 ([4]; all six doses): < 2 fold | fold change relative to baseline of L-selectin ([4]; all six doses): < 2 fold | Subjects with any drug related TEAE ([5]; Part A, MGTA-145 0.0075-0.3 mg/kg, n = 24): 19 (79.2) n (%) | Back pain/Musculoskeletal pain ([5]; Part A, n = 24): 19 (79.2) n (%) | initial plateau of WBC mobilization (white blood cells (WBCs); [11]): 6-10 ×10^3 cells/μL | peak mobilization of WBCs (white blood cells (WBCs); [12]): 15-17 ×10^3 cells/μL | potency to induce hematopoietic stem and progenitor cell mobilization relative to Gro-β ([6]; U.S. Pat. No. 6,080,398): superior to that of Gro-β by multiple orders of magnitude | engraftment rates, secondary transplantation [7]: vastly improved engraftment rates | molar ratio of MMP-9:TIMP-1 (MMP-9): rapid increase 30 minutes post-administration | plasma levels of MMP-9 (MMP-9): increased sharply within 30 minutes post-administration | fold increase of CD34+ cells (CD34+ cells [8]; [13]): 7 fold | peak concentration of CD34+ cells (CD34+ cells [8]; [13]): ~10 cells/μL | time of peak CD34+ mobilization post administration (CD34+ cells [8]; MGTA-145 monotherapy, across six doses 0.0075-0.3 mg/kg): about 30 minutes | fold increase of CD34+ cells (CD34+ cells [8]; [14]): 2-3 fold | peak concentration of CD34+ cells (CD34+ cells [8]; MGTA-145 monotherapy, the other doses (0.0075, 0.015, 0.075, 0.15, 0.3 mg/kg)): ~5 cells/μL | Percent ≥20/μL (CD34+ cells [8]; Part A, MGTA-145 0.03 mg/kg): 0% | Peak CD34+ (#/μL) Median (CD34+ cells [8]; Part A, MGTA-145 0.3 mg/kg): 3 #/μL | Percent ≥20/μL (CD34+ cells [8]; Part A, MGTA-145 0.3 mg/kg): 0% | Peak CD34+ (#/μL) Median (CD34+ cells [8]; Part A, MGTA-145 on Day 1, 0.03 mg/kg): 12 #/μL

c1cc(CN2CCCNCCNCCCNCC2)ccc1CN1CCCNCCNCCCNCC1 [Plerixafor, 1,1′-[1,4-phenylenebis(methylene)]-bis-1,4,8,11-tetra-azacyclotetradecane]
median peak CD34+CD90+CD45RA− cells (CD34+CD90+CD45RA− cells; plerixafor alone): 8 cells/μL | patients with peak CD34+ ≥20 cells/μL (%) (CD34+ cells [9]): 28% (7/25) | patients with peak CD34+ ≥40 cells/μL (%) (CD34+ cells [9]): 4% (1/25) | Abdominal discomfort/pain [5, 15]: 4 (28.6) n (%) | Back pain/Musculoskeletal pain [5, 15]: 2 (14.3) n (%) | Diarrhea [5, 15]: 5 (35.7) n (%) | Dizziness [5, 15]: 1 (7.1) n (%) | Dysgeusia [5, 15]: 2 (14.3) n (%) | Headache [5, 15]: 1 (7.1) n (%) | Nausea [5, 15]: 2 (14.3) n (%) | Vomiting [5, 15]: 1 (7.1) n (%) | graft CD34+ Median (range) ([10]; Chen et al., 2019, 2 LP for plerixafor (N = 50+), 1 LP for G-CSF (N = 112+)): 4.7 (0.9-9.6) ×10^6/kg | graft CD3+ Median (range) [10, 16]: 6.0 (2.7-13.0) ×10^8/kg | graft CD4+ Median (range) [10, 16]: 3.6 (2.0-9.4) ×10^8/kg | graft CD8+ Median (range) [10, 16]: 2.2 (0.5-5.0) ×10^8/kg | graft CD19+ Median (range) [10, 16]: 1.5 (0.2-7.4) ×10^8/kg | graft CD56+ Median (range) [10, 16]: 0.4 (0.0-1.1) ×10^8/kg | graft CD3+ Median (range) [10, 17]: 4.6 (1.5-7.8) ×10^8/kg | graft CD4+ Median (range) [10, 17]: 3.2 (1-5.7) ×10^8/kg | graft CD8+ Median (range) [10, 17]: 1.3 (0.4-3.4) ×10^8/kg | graft CD19+ Median (range) [10, 17]: 1.0 (0.2-2.4) ×10^8/kg | graft CD56+ Median (range) [10, 17]: 0.3 (0.1-1.0) ×10^8/kg | graft CD34+ Median (range) ([10]; Devine et al, 2008, yield of 1 LP, plerixafor N = 24, G-CSF N = 8): 2.9 (1.2-6.3) ×10^6/kg | % ≥40/μL peak CD34+ (CD34+ cells [8]; Part B, plerixafor): 21% | % ≥20/μL peak CD34+ (CD34+ cells [8]; Part B, plerixafor (pooled placebo + plerixafor)): 64% | % ≥20/μL peak CD34+ (CD34+ cells [8]; [18]): 64% | Peak CD34+ (#/μL) Median (range) (CD34+ cells [8]; [18]): 26 #/μL | patients achieving peak CD34+ count of at least 20 cells per microliter (CD34+ cells [8]; [19]): none | patients achieving peak CD34+ count of at least 40 cells per microliter (CD34+ cells [8]; [19]): none | % ≥20/μL peak CD34+ (CD34+ cells [8]; Part C, plerixafor (pooled placebo + plerixafor)): 0% | % ≥20/μL peak CD34+ (CD34+ cells [8]; [20]): 0% | Peak CD34+ (#/μL) Median (range) (CD34+ cells [8]; [20]): 18 #/μL | % ≥40/μL peak CD34+ (CD34+ cells [8]; Part C, plerixafor, first day): 0% | Peak CD34+ (#/μL) Median (CD34+ cells [8]; Part C, pooled placebo + plerixafor, Day 2): 17 #/μL | % ≥40/μL peak CD34+ (CD34+ cells [8]; Pooled B + C, plerixafor): 14% | % ≥20/μL peak CD34+ (CD34+ cells [8]; Pooled B + C, plerixafor): 50% | % ≥20/μL peak CD34+ (CD34+ cells [8]; Pooled B + C, plerixafor, listed as plerixafor): 56% | patients with peak CD34+ ≥20 cells/μL (%) (CD34+ cells [8]; plerixafor alone): 50% (7/14) | patients with peak CD34+ ≥40 cells/μL (%) (CD34+ cells [8]; plerixafor alone): 14% (2/14)

Gro-β T N65D: SEQ ID NO: 4; Gro-β T with aspartic acid in place of asparagine at position 65
potency (hematopoietic stem and progenitor cell mobilization) relative to Gro-β T ([6]; U.S. Pat. No. 6,447,766): substantially greater than that of Gro-β T
